In ChEMBL document CHEMBL5385858, “Identification of novel Pyrrolo[2,3-d]Pyrimidine-based KRAS G12C inhibitors with anticancer effects” (Eur J Med Chem, 2023):
pIC50: −log10 of the molar value. Active and inactive are the calls of the source. The rule behind the calls is not given here.

Legend:
SOS1-KRAS = SOS1-KRAS (Homo sapiens, UniProt P01116, G12C); test: Inhibition of KRAS G12C mutant/SOS1 (unknown origin) interaction incubated for 2 hrs in presence of GTP by HTRF assay; type: protein-complex assay
Chain of SOS1-KRAS (P01116 whole entry G12C, looked up): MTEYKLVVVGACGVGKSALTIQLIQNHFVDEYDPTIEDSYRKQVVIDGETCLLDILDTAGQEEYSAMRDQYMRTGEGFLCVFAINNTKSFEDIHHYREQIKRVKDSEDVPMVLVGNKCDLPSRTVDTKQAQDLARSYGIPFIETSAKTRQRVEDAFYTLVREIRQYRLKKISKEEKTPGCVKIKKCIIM

[1] = system: GTPase KRas (Homo sapiens), P01116 [G12C]; test: Inhibition of KRAS G12C mutant RBD in human NCI-H358 cells upto 1 uM in presence of GTP by pull-down assay; type: cell-based; conditions: time 24.0 hrs, TDE = time-dependent effect
Chain of GTPase KRas (Homo sapiens), P01116 [G12C] (P01116 whole entry G12C): as the sequence (P01116 whole entry G12C, looked up) above

[2] = system: GTPase KRas (Homo sapiens), P01116 [G12C]; test: Inhibition of KRAS G12C mutant in human NCI-H358 cells assessed as decrease in ERK phosphorylation incubated for 2 to 72 hrs by Western blot analysis; type: cell-based; conditions: time 2-72 hrs
[3] = system: GTPase KRas (Homo sapiens), P01116 [G12C]; test: Inhibition of KRAS G12C mutant in human NCI-H358 cells assessed as decrease in AKT phosphorylation incubated for 2 to 72 hrs by Western blot analysis; type: cell-based; conditions: time 2-72 hrs
[4] = system: GTPase KRas (Homo sapiens), P01116 [G12C]; test: Inhibition of KRAS G12C mutant in human NCI-H358 cells assessed as decrease in AKT phosphorylation upto 5 uM by Western blot analysis; type: cell-based; conditions: time 2-72 hrs, TDE = time-dependent effect
NCI-H358 [5] = test: Antiproliferative activity against human NCI-H358 cells harboring KRAS G12C mutant assessed as inhibition of cell proliferation incubated for 3 days by CCK8 assay; type: functional, cell-based; conditions: NCI-H358, 72 h
MIA PaCa-2 = test: Antiproliferative activity against human MIA PaCa-2 cells harboring KRAS G12C mutant assessed as inhibition of cell proliferation incubated for 3 days by CCK8 assay; type: functional, cell-based; conditions: MIA PaCa-2, 72 h
NCI-H1975 = test: Antiproliferative activity against human NCI-H1975 cells harboring wild-type KRAS assessed as inhibition of cell proliferation incubated for 3 days by CCK8 assay; type: functional, cell-based; conditions: NCI-H1975, 72 h
A549 = test: Antiproliferative activity against human A549 cells harboring KRAS G12S mutant assessed as inhibition of cell proliferation incubated for 3 days by CCK8 assay; type: functional, cell-based; conditions: A549, 72 h
[6] = system: GTPase KRas (Homo sapiens), P01116 [G12C]; test: Inhibition of KRAS G12C mutant in human […] cells assessed as decrease in ERK phosphorylation at 5 to 20 uM incubated for 4 hrs by Western blot analysis; type: cell-based; conditions: dose 5-20 µM
NCI-H358 [7] = test: Antiproliferative activity against human NCI-H358 cells harboring siKRAS assessed as inhibition of cell proliferation; type: functional, cell-based
NCI-H358 [8] = test: Antiproliferative activity against human NCI-H358 cells harboring KRAS G12C/Y96D mutant assessed as inhibition of cell proliferation incubated for 48 hrs by CCK8 assay; type: functional, cell-based
NCI-H358 [9] = test: Induction of apoptosis in human NCI-H358 cells assessed as viable cells at 0.1 uM incubated for 24 hrs by Annexin V-FITC/PI staining based flow cytometry (reference value: 91.4 %); type: functional; conditions: Homo sapiens, NCI-H358, read-out: Activity
NCI-H358 [10] = test: Induction of apoptosis in human NCI-H358 cells assessed as late apoptotic cells at 0.1 uM incubated for 24 hrs by Annexin V-FITC/PI staining based flow cytometry (reference value: 1.32 %); type: functional
NCI-H358 [11] = test: Induction of apoptosis in human NCI-H358 cells assessed as viable cells at 0.3 uM incubated for 24 hrs by Annexin V-FITC/PI staining based flow cytometry (reference value: 91.4 %); type: functional; conditions: read-out: Activity
NCI-H358 [12] = test: Inhibition of cell migration in human NCI-H358 cells at 0.1 to 1 uM measured for 48 hrs by wound scratch assay; type: functional, cell-based; conditions: dose 0.1-1 µM
NCI-H358 [13] = test: Inhibition of cell invasion in human NCI-H358 cells measured for 24 hrs by transwell assay; type: functional, cell-based
[14] = C0 in ICR mouse at 3 mg/kg, iv measured for 24 hrs by LC-MS/MS analysis; type: ADME, organism-based; conditions: in vivo
[15] = Volume of distribution at steady state in ICR mouse at 3 mg/kg, iv measured for 24 hrs by LC-MS/MS analysis; type: ADME, organism-based; conditions: in vivo, read-out: Vdss
[16] = C0 in ICR mouse at 30 mg/kg, po measured for 24 hrs by LC-MS/MS analysis; type: ADME, organism-based; conditions: in vivo
[17] = Half life in ICR mouse at 30 mg/kg, po measured for 24 hrs by LC-MS/MS analysis; type: ADME, organism-based; conditions: in vivo
[18] = Oral bioavailability in ICR mouse at 30 mg/kg measured for 24 hrs by LC-MS/MS analysis; type: ADME, organism-based; conditions: in vivo
NCI-H358 [19] = test: Antitumor activity in human NCI-H358 cells xenografted in BALB/c-nu/nu mouse assessed as tumor regression at 30 mg/kg, po qd treated for 20 days; type: functional, organism-based; conditions: time 20.0 day
NCI-H358 [20] = test: Antitumor activity in human NCI-H358 cells xenografted in BALB/c-nu/nu mouse assessed as tumor growth inhibition at 10 mg/kg, po qd treated for 20 days relative to control; type: functional; conditions: Mus musculus, NCI-H358, 480 h, time 20 day, read-out: TGI
NCI-H358 [21] = test: Antitumor activity in human NCI-H358 cells xenografted in BALB/c-nu/nu mouse assessed as tumor growth inhibition at 30 mg/kg, po qd treated for 20 days relative to control; type: functional; conditions: NCI-H358, 480 h, time 20 day, read-out: TGI
[22] = Toxicity in BALB/c-nu/nu mouse xenografted with human NCI-H358 cells assessed as drug tolerance at 10 to 30 mg/kg, po qd treated for 20 days; type: organism-based; conditions: in vivo, 480 h, dose 10-30 mg/kg, time 20 day
[23] = Toxicity in BALB/c-nu/nu mouse xenografted with human NCI-H358 cells assessed as morphological damage in heart at 10 to 30 mg/kg, po qd treated for 20 days; type: organism-based; conditions: in vivo, 480 h, dose 10-30 mg/kg, time 20 day
[24] = Toxicity in BALB/c-nu/nu mouse xenografted with human NCI-H358 cells assessed as morphological damage in spleen at 10 to 30 mg/kg, po qd treated for 20 days; type: organism-based; conditions: in vivo, 480 h, dose 10-30 mg/kg, time 20 day
NCI-H358 [25] = test: In vivo inhibition of KRAS G12C mutant in human NCI-H358 cells xenografted in BALB/c-nu/nu mouse assessed as decrease in ERK phosphorylation at 10 to 30 mg/kg, po qd treated for 20 days by Western blot analysis; type: functional, organism-based; conditions: dose 10-30 mg/kg, time 20.0 day
[26] = Toxicity in BALB/c-nu/nu mouse xenografted with human NCI-H358 cells assessed as histological change in spleen at 10 to 30 mg/kg, po qd treated for 20 days by H and E staining based analysis; type: organism-based; conditions: in vivo, 480 h, dose 10-30 mg/kg, time 20 day

In the case of C=CC(=O)N1CCN(c2nc(OC[C@@]34CCCN3C[C@H](F)C4)nc3c2cc(-c2cccc4cccc(C)c24)n3C)C[C@@H]1CC#N, the pIC50 (SOS1-KRAS) was 6.68, the inhibition [1] was “Tde” and the inhibition [2] was “Dose-Dependent Effect”. For the same molecule, the inhibition [3] was “Dose-Dependent Effect”, the inhibition [4] was “Tde” and the pIC50 (NCI-H358 [5]) was 6.80. The pIC50 (MIA PaCa-2) was 6.06, the pIC50 (NCI-H1975) was 5.10 and the pIC50 (A549) was 4.52. The inhibition [6] was “Active”, the inhibition (NCI-H358 [7]) was “Active” and the inhibition (NCI-H358 [8]) was “Active”. For the same molecule, the viability at 0.1 µM (NCI-H358 [9]) was 84.6%, the Activity (NCI-H358 [10]) was 3.71% and the viability at 0.3 µM (NCI-H358 [11]) was 83.2%. The Activity (NCI-H358 [12]) was “Active”, the Activity (NCI-H358 [13]) was “Dose-Dependent Effect” and the C0 at 24 h [14] was 1960 ng/mL. For the same molecule, the Vd [15] was 4.98 L/kg, the C0 [16] was 316 ng/mL and the half-life [17] was 4.79 h. The bioavailability [18] was 10.4%, the Activity (NCI-H358 [19]) was “Active” and the inhibition in vivo at 10 mg/kg (NCI-H358 [20]) was 65.4%. For the same molecule, the inhibition in vivo at 30 mg/kg (NCI-H358 [21]) was 84%, the Activity [22] was “Non-Toxic” and the Activity [23] was “Non-Toxic”. For the same molecule, the Activity [24] was “Non-Toxic”, the inhibition (NCI-H358 [25]) was “Active” and the Activity [26] was “Non-Toxic”.
